Experimental data taken from ChEMBL document CHEMBL3885881, “DrugMatrix”.

Species on record: Rattus norvegicus
Test: DrugMatrix - Regimen: Daily Repeat
Type: toxicity, organism-based, Sprague-Dawley
Design: regimen Daily Repeat, gender Male, age 6-8 weeks
Details: in vivo, po, route oral GAVAGE, vehicle .5 % CMC; for BASOPHIL / EOSINOPHIL / ERYTHROCYTE COUNT / HEMATOCRIT / HEMOGLOBIN / LEUKOCYTE COUNT / LYMPHOCYTE / MEAN CORPUSCULAR HEMOGLOBIN / MEAN CORPUSCULAR HEMOGLOBIN CONCENTRATION / MEAN CORPUSCULAR VOLUME / MONOCYTE / NEUTROPHIL / PLATELET COUNT: tissue Blood; for ALANINE AMINOTRANSFERASE / ALBUMIN / ALKALINE PHOSPHATASE / ASPARTATE AMINOTRANSFERASE / BLOOD UREA NITROGEN / CHLORIDE / CHOLESTEROL / CREATINE PHOSPHOKINASE / CREATININE / GLUCOSE / PHOSPHORUS / POTASSIUM / SODIUM / TOTAL BILIRUBIN / TOTAL PROTEIN: tissue Plasma
[1] = 0 mg/kg, 72 h, dose level Control, time 3 day
[2] = 0 mg/kg, 120 h, dose level Control, time 5 day
[3] = 45 mg/kg, 72 h, dose level Low, time 3 day
[4] = 45 mg/kg, 120 h, dose level Low, time 5 day

Nc1ccc(C(=O)O)c(O)c1 [AMINOSALICYLIC ACID]
BASOPHIL [1]: 0%
EOSINOPHIL [1]: 0%
ERYTHROCYTE COUNT [1]: 6.34 x10E6/uL
HEMATOCRIT [1]: 37.62%
HEMOGLOBIN [1]: 14.82 G/DL
LEUKOCYTE COUNT [1]: 11.18 x10E3/uL
LYMPHOCYTE [1]: 87.5%
MEAN CORPUSCULAR HEMOGLOBIN [1]: 23.48 pg
MEAN CORPUSCULAR HEMOGLOBIN CONCENTRATION [1]: 39.5 G/DL
MEAN CORPUSCULAR VOLUME [1]: 59.45 fL
MONOCYTE [1]: 1.67%
NEUTROPHIL [1]: 10.83%
PLATELET COUNT [1]: 1074.83 x10E3/uL
ALANINE AMINOTRANSFERASE [1]: 36.5 u/L
ALBUMIN [1]: 3.9 G/DL
ALKALINE PHOSPHATASE [1]: 370.17 u/L
ASPARTATE AMINOTRANSFERASE [1]: 63.17 u/L
BLOOD UREA NITROGEN [1]: 16.83 mg/dL
CHLORIDE [1]: 99.33 MEQ/L
CHOLESTEROL [1]: 64.33 mg/dL
CREATINE PHOSPHOKINASE [1]: 127 u/L
CREATININE [1]: 0.55 mg/dL
GLUCOSE [1]: 173.5 mg/dL
PHOSPHORUS [1]: 10.08 mg/dL
POTASSIUM [1]: 6.23 MEQ/L
SODIUM [1]: 143.5 MEQ/L
TOTAL BILIRUBIN [1]: 0.52 mg/dL
TOTAL PROTEIN [1]: 6.35 G/DL
BASOPHIL [2]: 0%
EOSINOPHIL [2]: 0.17%
ERYTHROCYTE COUNT [2]: 6.12 x10E6/uL
HEMATOCRIT [2]: 37.08%
HEMOGLOBIN [2]: 14.82 G/DL
LEUKOCYTE COUNT [2]: 11.87 x10E3/uL
LYMPHOCYTE [2]: 83.33%
MEAN CORPUSCULAR HEMOGLOBIN [2]: 24.25 pg
MEAN CORPUSCULAR HEMOGLOBIN CONCENTRATION [2]: 39.97 G/DL
MEAN CORPUSCULAR VOLUME [2]: 60.65 fL
MONOCYTE [2]: 1.5%
NEUTROPHIL [2]: 15%
PLATELET COUNT [2]: 1042.83 x10E3/uL
ALANINE AMINOTRANSFERASE [2]: 46 u/L
ALBUMIN [2]: 3.82 G/DL
ALKALINE PHOSPHATASE [2]: 369.5 u/L
ASPARTATE AMINOTRANSFERASE [2]: 65 u/L
BLOOD UREA NITROGEN [2]: 16.33 mg/dL
CHLORIDE [2]: 100.67 MEQ/L
CHOLESTEROL [2]: 57.17 mg/dL
CREATINE PHOSPHOKINASE [2]: 130 u/L
CREATININE [2]: 0.53 mg/dL
GLUCOSE [2]: 163.33 mg/dL
PHOSPHORUS [2]: 9.53 mg/dL
POTASSIUM [2]: 6.27 MEQ/L
SODIUM [2]: 144.83 MEQ/L
TOTAL BILIRUBIN [2]: 0.55 mg/dL
TOTAL PROTEIN [2]: 6.32 G/DL
BASOPHIL [3]: 0%
EOSINOPHIL [3]: 0%
ERYTHROCYTE COUNT [3]: 6.2 x10E6/uL
HEMATOCRIT [3]: 36.9%
HEMOGLOBIN [3]: 14.43 G/DL
LEUKOCYTE COUNT [3]: 13.37 x10E3/uL
LYMPHOCYTE [3]: 88%
MEAN CORPUSCULAR HEMOGLOBIN [3]: 23.3 pg
MEAN CORPUSCULAR HEMOGLOBIN CONCENTRATION [3]: 39.13 G/DL
MEAN CORPUSCULAR VOLUME [3]: 59.6 fL
MONOCYTE [3]: 0.33%
NEUTROPHIL [3]: 11.67%
PLATELET COUNT [3]: 1203.67 x10E3/uL
ALANINE AMINOTRANSFERASE [3]: 39.33 u/L
ALBUMIN [3]: 3.83 G/DL
ALKALINE PHOSPHATASE [3]: 358.33 u/L
ASPARTATE AMINOTRANSFERASE [3]: 67.33 u/L
BLOOD UREA NITROGEN [3]: 15 mg/dL
CHLORIDE [3]: 99.33 MEQ/L
CHOLESTEROL [3]: 71.33 mg/dL
CREATINE PHOSPHOKINASE [3]: 117 u/L
CREATININE [3]: 0.53 mg/dL
GLUCOSE [3]: 180 mg/dL
PHOSPHORUS [3]: 10.37 mg/dL
POTASSIUM [3]: 6.03 MEQ/L
SODIUM [3]: 143 MEQ/L
TOTAL BILIRUBIN [3]: 0.47 mg/dL
TOTAL PROTEIN [3]: 6.27 G/DL
BASOPHIL [4]: 0%
EOSINOPHIL [4]: 0%
ERYTHROCYTE COUNT [4]: 5.82 x10E6/uL
HEMATOCRIT [4]: 35.1%
HEMOGLOBIN [4]: 14.37 G/DL
LEUKOCYTE COUNT [4]: 14.2 x10E3/uL
LYMPHOCYTE [4]: 88%
MEAN CORPUSCULAR HEMOGLOBIN [4]: 24.67 pg
MEAN CORPUSCULAR HEMOGLOBIN CONCENTRATION [4]: 40.97 G/DL
MEAN CORPUSCULAR VOLUME [4]: 60.3 fL
MONOCYTE [4]: 2%
NEUTROPHIL [4]: 10%
PLATELET COUNT [4]: 1018.67 x10E3/uL
ALANINE AMINOTRANSFERASE [4]: 34.33 u/L
ALBUMIN [4]: 3.6 G/DL
ALKALINE PHOSPHATASE [4]: 348.33 u/L
ASPARTATE AMINOTRANSFERASE [4]: 58 u/L
BLOOD UREA NITROGEN [4]: 15 mg/dL
CHLORIDE [4]: 101 MEQ/L
CHOLESTEROL [4]: 62.67 mg/dL
CREATINE PHOSPHOKINASE [4]: 122.67 u/L
CREATININE [4]: 0.47 mg/dL
GLUCOSE [4]: 155.33 mg/dL
PHOSPHORUS [4]: 10 mg/dL
POTASSIUM [4]: 6.3 MEQ/L
SODIUM [4]: 144.67 MEQ/L
TOTAL BILIRUBIN [4]: 0.37 mg/dL
TOTAL PROTEIN [4]: 5.8 G/DL
